According to patent publication US7592308B2, “F3W variants of the lantibiotic mersacidin and its use” (priority 2004, dated 2009):
In brackets after ≈: the same amount, converted by molar mass. Like-named read-outs stand apart in the source and are kept apart here. Square brackets hold non-standard residues; d marks the D form. Ends that are not written are not given here. Dha = C=C(N)C(=O)O

Tests used:
S. aureus R33 = format: cell-based, Staphylococcus aureus; conditions: Table 8A; MHB + 50 μg/ml calcium; duplicate
Description: (§1) A selection of the variants produced in Example 1 above were tested further for activity against a range of bacteria. Minimum inhibitory concentrations (MICs) for all organisms with the exception of Streptococcus pneumoniae were determined by two-fold serial antibiotic dilutions in Mueller-Hinton broth (MHB) supplemented with 50 μg/ml calcium as calcium chloride dihydrate. Minimum inhibitory concentrations (MICs) for S. pneumoniae were determined by two-fold serial antibiotic dilutions in Brain Heart Infusion (BHI) broth supplemented with 50 μg/ml calcium as calcium chloride dihydrate. Antimicrobial agent stock solutions were prepared and stored according to NCCLS standard M7-A6.
(§2) Actively growing broth cultures were diluted to contain […] by adjusting to an absorbance of 0.2-0.3 at 600 nm, equivalent to the McFarland 0.5 standard. They were then diluted a further 1:100 in broth. The assays were performed in duplicate in sterile 96-well microtitre plates in a total volume of 200 μl (160 μl broth, 20 μl antibiotic, 20 μl inoculum) in a concentration range from 64 μg/ml to 0.06 μg/ml. The 12th well of the microtitre plate contained no antimicrobial agent. Vancomycin was used as a reference antibiotic for quality control. Plates were incubated aerobically, shaking, for 18-20 hours at 37° C. with the MIC defined as the lowest concentration of drug that produced no visible growth.

S. aureus SH1000 = format: cell-based, Staphylococcus aureus; conditions: Table 8A; MHB + 50 μg/ml calcium; duplicate
Description: as §1, §2

S. epidermidis 11047 = format: cell-based, Staphylococcus epidermidis; conditions: Table 8B; MHB + 50 μg/ml calcium; duplicate
Description: as §1, §2

S. pneumoniae R6 = format: cell-based, Streptococcus pneumoniae; conditions: Table 8B; BHI broth + 50 μg/ml calcium; duplicate
Description: as §1, §2

E. faecalis 29212 = test: MIC, two-fold serial dilution in broth; format: cell-based, Enterococcus faecalis; conditions: Table 8A; MHB + 50 μg/ml calcium; duplicate
Description: as §1, §2

E. faecium 7131121 = test: MIC, two-fold serial dilution in broth; format: cell-based, Enterococcus faecium; conditions: Table 8A; MHB + 50 μg/ml calcium; duplicate
Description: as §1, §2

E. faecium 19579 = test: MIC, two-fold serial dilution in broth; format: cell-based, Enterococcus faecium; conditions: Table 8A; MHB + 50 μg/ml calcium; duplicate
Description: as §1, §2

E. faecium BM4147 = test: MIC test, further organisms; format: cell-based, Enterococcus faecium; conditions: Table 10; duplicate
Description: (§3) MIC tests were performed with some of the variants of Example 2 on a range of other organisms. The results are shown in Tables 9 and 10 (figures in μg/ml): […]

S. aureus Mu50 = test: MIC test, further organisms; format: cell-based, Staphylococcus aureus; conditions: Table 10; duplicate
Description: as §3

S. aureus LT 1012-13 = test: MIC test, further organisms; format: cell-based, Staphylococcus aureus; conditions: Table 10; duplicate
Description: as §3

S. aureus COL = format: cell-based, Staphylococcus aureus
Description: as §3

M. luteus 4698 = format: cell-based, Micrococcus luteus
Description: as §1, §2

[1] = system: Micrococcus luteus ATCC4698; test: Bioassay of culture supernatant against M. luteus; format: cell-based; conditions: aqueous phase of chloroform-extracted culture supernatant
Description: The cultures were assayed for production of mersacidin by HPLC and bioassay against Micrococcus luteus ATCC4698. Samples of production cultures (1 ml) were centrifuged at 14000 rpm for 10 minutes. Supernatants were decanted and used undiluted for HPLC and bioassay.
For bioassays, M.luteus was inoculated from frozen stock into 10 ml half-strength Muller-Hinton broth in a 50 ml conical flask, and incubated at 30C with shaking at 250 rpm for approximately 7 hours, 0.3 ml of this culture was used to inoculate 300 ml of Muller-Hinton agar which was poured into a bioassay plate. Wells (6 mm diameter) were made with a cork-borer. Samples of 50 μl of supernatants were added to these wells. The concentration of mersacidin in the samples was calculated by comparing the diameter of inhibition zones of samples against a range of concentrations of a pure mersacidin standard.
Chloramphenicol resistant colonies were selected and grown in 3 ml Tryptic Soy Broth at 30C for 24 hours, 250 rpm and 0.3 ml of these cultures were used to inoculate 7 ml of 2×BPM+300 mM glucose+chloramphenicol (20 mg/l). After five days of incubation at 30C and 250 rpm, a 1 ml sample was collected and centrifuged at 13000 rpm for 10 min, the supernatant was removed, extracted with 1 volume of chloroform and the aqueous phase used for bioassay and HPLC-MS analysis (see accompanying disclosure for method). […] These masses are consistent with production of the expected mature lantibiotic products.
The ligation mixture was used to transform E. coli DH10B (Invitrogen). Ampicillin resistant colonies were selected, grown in LB+ampicillin (100 mg/l) and plasmids were isolated and characterised by sequence analysis. Plasmid encoding the expected mutant (pNB2024) was used to transform E. coli ET12567 and the plasmid obtained from this strains was used to transform Bacillus sp. HIL Y-85,54728 E17A. Chloramphenicol resistant colonies were selected and grown in 3 ml Tryptic Soy Broth at 30C for 24 hours, 250 rpm and 0.3 ml of these cultures were used to inoculate 7 ml of 2×BPM+300 mM glucose+chloramphenicol (20 mg/l). […]

E. faecium 4147-1 = format: cell-based, Enterococcus faecium
Description: as §3

E. faecium 4147 VRE = format: cell-based, Enterococcus faecium
Description: as §3

S. pyogenes 16205 = format: cell-based, Streptococcus pyogenes
Description: as §3

S. pyogenes 13608 = format: cell-based, Streptococcus pyogenes
Description: as §3

S. aureus SG511 = format: cell-based, Staphylococcus aureus
Description: as §3

S. aureus 1012-13 MRSA = format: cell-based, Staphylococcus aureus
Description: as §3

S. aureus CS = format: cell-based, Staphylococcus aureus
Description: as §3

S. aureus COL MRSA = format: cell-based, Staphylococcus aureus
Description: as §3

[2] = Table 8B, MHB + 50 μg/ml calcium, duplicate

| Molecule | MIC S. aureus SH1000 (S. aureus SH1000) | MIC S. pneumoniae R6 (S. pneumoniae R6) | MIC E. faecalis 29212 (E. faecalis 29212) | MIC E. faecium 7131121 (E. faecium 7131121) | MIC E. faecium 19579 (E. faecium 19579) | MIC E. faecium BM4147 (E. faecium BM4147) | MIC S. aureus Mu50 (S. aureus Mu50) | MIC S. aureus LT 1012-13 (S. aureus LT 1012-13) | MIC S. aureus COL (S. aureus COL; Table 10, duplicate) | antibiotic activity in bioassay against M. luteus [1] | other results |
| --- | --- | --- | --- | --- | --- | --- | --- | --- | --- | --- | --- |
| G9R: mersacidin variant (CTFTLPGGRGVCTLT[Dha]ECIC; thioether (positions not given here); not fully specified; UniProt P43683 49-68, looked up, variant G9R) | >64, >64 μg/ml | >64, >64 μg/ml | >64, >64 μg/ml | >64, >64 μg/ml | >64, >64 μg/ml |  |  |  |  |  | MIC S. aureus R33 (S. aureus R33): >64, >64 μg/ml; MIC S. epidermidis 11047 (S. epidermidis 11047): >64, >64 μg/ml |
| G8N: mersacidin variant (CTFTLPGNGGVCTLT[Dha]ECIC; thioether (positions not given here); not fully specified; UniProt P43683 49-68, looked up, variant G8N) | >64, >64 μg/ml | >64, >64 μg/ml | >64, >64 μg/ml |  | >64, >64 μg/ml | >64, >64 μg/ml | >64, >64 μg/ml | >64, >64 μg/ml | >64, >64 μg/ml |  |  |
| C=C1NC(=O)C2NC(=O)[C@H](CC(C)C)NC(=O)C(NC(=O)[C@@H]3CSC(C)C(NC(=O)[C@H](Cc4ccccc4)NC(=O)C4NC(=O)[C@@H](N)CSC4C)C(=O)N[C@@H](CC(C)C)C(=O)N4CCC[C@H]4C(=O)NCC(=O)NCC(=O)N[C@@H](C)C(=O)NCC(=O)N[C@@H](C(C)C)C(=O)N3)C(C)SC[C@H](NC(=O)[C@H](CCC(=O)O)NC1=O)C(=O)N[C@@H]([C@@H](C)CC)C(=O)NC=CSC2C (some centres unmarked) [G9A] |  |  | >64, >64 μg/ml |  |  | >64, >64 μg/ml | >64, >64 μg/ml | >64, >64 μg/ml |  |  | MIC M. luteus 4698 (M. luteus 4698; [2]): <4, <4 μg/ml; MIC S. aureus COL (S. aureus COL; COL): 64, >64 μg/ml |
| C=C1NC(=O)C2NC(=O)[C@H](CC(C)C)NC(=O)C(NC(=O)[C@@H]3CSC(C)C(NC(=O)[C@H](Cc4c[nH]c5ccccc45)NC(=O)C4NC(=O)[C@@H](N)CSC4C)C(=O)N[C@@H](CC(C)C)C(=O)N4CCC[C@H]4C(=O)NCC(=O)NCC(=O)NCC(=O)NCC(=O)N[C@@H](C(C)C)C(=O)N3)C(C)SC[C@H](NC(=O)[C@H](CCC(=O)O)NC1=O)C(=O)N[C@@H]([C@@H](C)CC)C(=O)NC=CSC2C (some centres unmarked) [F3W, mersacidin F3W] |  |  |  |  |  |  |  |  |  | antibiotic activity comparable to mersacidin | MIC E. faecium 4147-1 (E. faecium 4147-1; Table 9, 16 h): 32-16 h, μg/ml; MIC E. faecium 4147-1 (E. faecium 4147-1; Table 9, 23 h): 64-23 h μg/ml; MIC E. faecium 4147 VRE (E. faecium 4147 VRE; 4147 VRE): 32 µg/mL (≈ 17.2 µM); MIC M. luteus 4698 (M. luteus 4698; 4698): 0.5 µg/mL (≈ 0.268 µM); MIC S. pyogenes 16205 (S. pyogenes 16205): 0.125 µg/mL (≈ 0.067 µM); MIC S. pyogenes 13608 (S. pyogenes 13608): 0.125 µg/mL (≈ 0.067 µM); MIC S. aureus SG511 (S. aureus SG511): 2 µg/mL (≈ 1.07 µM); MIC S. aureus 1012-13 MRSA (S. aureus 1012-13 MRSA): 4 µg/mL (≈ 2.14 µM); MIC S. aureus CS (S. aureus CS): 4 µg/mL (≈ 2.14 µM); MIC S. aureus COL MRSA (S. aureus COL MRSA): 16 µg/mL (≈ 8.58 µM) |
| C=C1NC(=O)C2NC(=O)[C@H](CC(C)C)NC(=O)C(NC(=O)[C@@H]3CSC(C)C(NC(=O)[C@H](Cc4ccccc4)NC(=O)C4NC(=O)[C@@H](N)CSC4C)C(=O)N[C@@H](CC(C)C)C(=O)N[C@@H](Cc4c[nH]cn4)C(=O)NCC(=O)NCC(=O)NCC(=O)NCC(=O)N[C@@H](C(C)C)C(=O)N3)C(C)SC[C@H](NC(=O)[C@H](CCC(=O)O)NC1=O)C(=O)N[C@@H]([C@@H](C)CC)C(=O)NC=CSC2C (some centres unmarked) [P6H] |  | >64, 64 μg/ml | >64, >64 μg/ml | >64, >64 μg/ml | >64, >64 μg/ml | >64, >64 μg/ml | >64, >64 μg/ml | >64, >64 μg/ml | >64, >64 μg/ml |  |  |
| C=C1NC(=O)C2NC(=O)[C@H](CC(C)C)NC(=O)C(NC(=O)[C@@H]3CSC(C)C(NC(=O)[C@H](Cc4ccccc4)NC(=O)C4NC(=O)[C@@H](N)CSC4C)C(=O)N[C@@H](CC(C)C)C(=O)N4CCC[C@H]4C(=O)NCC(=O)N[C@@H](C)C(=O)NCC(=O)NCC(=O)N[C@@H](C(C)C)C(=O)N3)C(C)SC[C@H](NC(=O)[C@H](CCC(=O)O)NC1=O)C(=O)N[C@@H]([C@@H](C)CC)C(=O)NC=CSC2C (some centres unmarked) [G8A, mersacidin G8A] |  |  |  |  |  |  |  |  |  | has antibiotic activity | MIC E. faecium 4147-1 (E. faecium 4147-1; 4147-1): 128 µg/mL (≈ 69.6 µM); MIC E. faecium 4147 VRE (E. faecium 4147 VRE; Table 9, 16 h): 64-16 h, μg/ml; MIC E. faecium 4147 VRE (E. faecium 4147 VRE; Table 9, 24 h): 128-24 h μg/ml; MIC M. luteus 4698 (M. luteus 4698; 4698): 4 µg/mL (≈ 2.17 µM); MIC S. pyogenes 16205 (S. pyogenes 16205): 1 µg/mL (≈ 0.543 µM); MIC S. pyogenes 13608 (S. pyogenes 13608): 1 µg/mL (≈ 0.543 µM); MIC S. aureus SG511 (S. aureus SG511): 8 µg/mL (≈ 4.35 µM); MIC S. aureus 1012-13 MRSA (S. aureus 1012-13 MRSA): 16 µg/mL (≈ 8.69 µM); MIC S. aureus CS (S. aureus CS): 8 µg/mL (≈ 4.35 µM); MIC S. aureus COL MRSA (S. aureus COL MRSA): 32 µg/mL (≈ 17.4 µM) |
| G9S: mersacidin variant (CTFTLPGGSGVCTLT[Dha]ECIC; thioether (positions not given here); not fully specified; UniProt P43683 49-68, looked up, variant G9S) | >64, >64 μg/ml | >64, >64 μg/ml | >64, >64 μg/ml | >64, >64 μg/ml | >64, >64 μg/ml |  |  |  |  |  | MIC S. aureus R33 (S. aureus R33): >64, >64 μg/ml; MIC S. epidermidis 11047 (S. epidermidis 11047): >64, >64 μg/ml |
| G9H: mersacidin variant (CTFTLPGGHGVCTLT[Dha]ECIC; thioether (positions not given here); not fully specified; UniProt P43683 49-68, looked up, variant G9H) |  |  | >64, >64 μg/ml |  |  | >64, >64 μg/ml | >64, >64 μg/ml | >64, >64 μg/ml | >64, >64 μg/ml |  | MIC M. luteus 4698 (M. luteus 4698; [2]): <4, <4 μg/ml |
| G8V: mersacidin variant, inactive in bioassay (CTFTLPGVGGVCTLT[Dha]ECIC; thioether (positions not given here); not fully specified; UniProt P43683 49-68, looked up, variant G8V) |  |  |  |  |  |  |  |  |  | inactive |  |
